From patent US12404285B2, “KRAS G12D proteolysis targeting chimeras” (PAQ Therapeutics Inc., priority 2022, dated 2025)

What follows are molecules tested against T1, KRAS in AGS cells (KRAS G12D mutant cell line) or LS180 cells (KRAS G12D mutant cell line) (Homo sapiens, UniProt P01116, G12D) (assay: KRAS Western Blot (WB) assay). Settings: KRAS degradation, 24 hours incubation, normalized to β-actin.
T1 construct: CRL-187 (LS180) (so in the source); host or cells: AGS or LS180 cells
Assay type: cell-based
Procedure: Day 1. Seeded AGS cells (KRAS G12D mutant cell line, ATCC, CRL-1739) or LS180 cells (KRAS G12D mutant cell line, ATCC, CRL-187) into 6-well plates (cell density: 3×10^5 cells/well/2 ml medium) in Ham's F-12 medium (Invitrogen, 11765-054) or Eagle's Minimum Essential Medium (ATCC, 30-2003) and incubated overnight at 37° C. and 5% CO2.
Day 2. Aspirated 1 ml medium from each well and added 1 ml medium containing DMSO or test compound into the well to achieve the desired final concentration. Mixed well by gentle shaking and incubated for 24 hours.
Day 3. Aspirated media from plates; washed cells with 2 ml 4° C. PBS (Solarbio, P1020-500) and aspirated the PBS. Then added 100 μl 4° C. […] lysis buffer (Boston BioProducts BP-115D) with protease and phosphatase inhibitors at vendor recommended concentrations (Roche 05892791001 and 04906837001) into each well to lyse the cells, and incubated for 20 minutes at 4° C. Cell lysate was collected into 1.5 ml Eppendorf tube, and the lysate was sonicated at 4° C. for 2 minutes (5 second pulse at 30% power with 10 second intermissions). The lysate was centrifuged at 12,000 rpm for 15 minutes at 4° C. The supernatant was transferred to a fresh Eppendorf tube, and protein concentration was quantified using a BCA kit (Solarbio, PC0020-500). Mixed the cell lysate and 5×NuPAGE SDS Loading Buffer (Beyotime, P0015L), and heated at 95° C. for 10 minutes in a heat block. Prepared samples were stored at −80° C. until SDS-PAGE procedure.
Day 4. Loaded 15 μg protein from each sample onto NuPAGE® Novex 4-12% Bis-Tris Midi Gel, 26 W (Invitrogen, WG1403BOX) and ran the gel at 120V for 1.5 hours in 1×NuPAGE® MOPS SDS Running Buffer (Novex, NP0001). Electrotransferred to nitrocellulose membrane using dry transfer method (iBlot 2 Transfer Stacks, nitrocellulose, IB23001) with a program consisting of 20V for 1 minute, 23V for 4 minutes and 25V for 2 minutes. Blocked the membrane with 5% BSA (Solarbio, A8020) in 1×TBST (CST, 9997S) for 1 hour at room temperature. Incubated with KRAS antibody (LSBio, LS-C175665, clone 2C1) at 1:1000 dilution and β-actin antibody at 1:1000 dilution (CST, 4970S) in TBST containing 1% BSA (Solarbio, A8020) at 4° C. overnight.
Day 5. Washed nitrocellulose membrane three times with 1×TBST for 10 minutes each at room temperature. Incubated with fluorescently labeled secondary antibodies at 1:5000 dilution in TBST containing 1% BSA (anti-rabbit IgG, Licor, 926-32211; anti-mouse IgG, LI-COR, 926-68070) for 1 hour at room temperature. Washed membrane three times with TBST, 10 minutes each. Scanned the membrane on LiCOR scanner for fluorescent signal(s) and quantified KRAS bands and β-actin bands for normalization.
The data are reported in Table 2, wherein “A” indicates a DC50 of less than 1 μM; “B” indicates a DC50 of greater than or equal to 1 μM and less than 10 μM; and “C” indicates a DC50 of greater than or equal to 10 μM.

T1 sequence (P01116 1-188 isoform P01116-2 G12D): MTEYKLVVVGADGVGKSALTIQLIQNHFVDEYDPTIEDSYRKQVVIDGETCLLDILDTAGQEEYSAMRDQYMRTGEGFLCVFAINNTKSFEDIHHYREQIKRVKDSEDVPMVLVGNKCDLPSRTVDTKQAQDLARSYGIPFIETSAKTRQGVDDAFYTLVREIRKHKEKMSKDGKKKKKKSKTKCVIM

DC50 | SMILES
A (DC50 less than 1 μM) | C#Cc1c(F)ccc2cc(O)cc(-c3ncc4c(N5C[C@H]6CC[C@@H](C5)N6)nc(OC[C@@]56CCCN5[C@H](COC(=O)NCCCCCCCCCCc5ccc7c(c5)n(C)c(=O)n7C5CCC(=O)NC5=O)CC6)nc4c3F)c12 (stereo partly drawn) [Compound 013, ((3S,7aS)-7a-(((4-((1R,5S)-3,8-diazabicyclo[3.2.1]octan-3-yl)-7-(8-ethynyl-7-fluoro-3-hydroxynaphthalen-1-yl)-8-fluoropyrido[4,3-d]pyrimidin-2-yl)oxy)methyl)hexahydro-1H-pyrrolizin-3-yl)methyl (10-(1-(2,6-dioxopiperidin-3-yl)-3-methyl-2-oxo-2,3-dihydro-1H-benzo[d]imidazol-5-yl)decyl) carbamate]
C (DC50 greater than or equal to 10 μM) | C#Cc1c(F)ccc2cc(O)cc(-c3ncc4c(N5CC6CCC(C5)N6)nc(OC[C@@]56CCCN5[C@H](COC(=O)NCCc5ccc7c(c5)n(C)c(=O)n7C5CCC(=O)NC5=O)CC6)nc4c3F)c12 (stereo partly drawn) [Compound 002, [(3S,8S)-8-[[4-(3,8-diazabicyclo[3.2.1]octan-3-yl)-7-(8-ethynyl-7-fluoro-3-hydroxy-1-naphthyl)-8-fluoro-pyrido[4,3-d]pyrimidin-2-yl]oxymethyl]-1,2,3,5,6,7-hexahydropyrrolizin-3-yl]methyl N-[2-[1-(2,6-dioxo-3-piperidyl)-3-methyl-2-oxo-benzimidazol-5-yl]ethyl]carbamate]
A (DC50 less than 1 μM) | C#Cc1c(F)ccc2cc(O)cc(-c3ncc4c(N5CC6CCC(C5)N6)nc(OC[C@@]56CCCN5[C@H](COC(=O)NCCCCCCCCCCCc5ccc7c(c5)n(C)c(=O)n7C5CCC(=O)NC5=O)CC6)nc4c3F)c12 (stereo partly drawn) [Compound 009, [(3S,8S)-8-[[4-(3,8-diazabicyclo[3.2.1]octan-3-yl)-7-(8-ethynyl-7-fluoro-3-hydroxy-1-naphthyl)-8-fluoro-pyrido[4,3-d]pyrimidin-2-yl]oxymethyl]-1,2,3,5,6,7-hexahydropyrrolizin-3-yl]methyl N-[11-[1-(2,6-dioxo-3-piperidyl)-3-methyl-2-oxo-benzimidazol-5-yl]undecyl]carbamate]
C (DC50 greater than or equal to 10 μM) | C#Cc1c(F)ccc2cc(O)cc(-c3ncc4c(N5CC6CCC(C5)N6)nc(OC[C@@]56CCCN5[C@H](COC(=O)NCCCNc5cccc7c5C(=O)N(C5CCC(=O)NC5=O)C7=O)CC6)nc4c3F)c12 (stereo partly drawn) [Compound 020, [(3S,8S)-8-[[4-(3,8-diazabicyclo[3.2.1]octan-3-yl)-7-(8-ethynyl-7-fluoro-3-hydroxy-1-naphthyl)-8-fluoro-pyrido[4,3-d]pyrimidin-2-yl]oxymethyl]-1,2,3,5,6,7-hexahydropyrrolizin-3-yl]methylN-[3-[[2-(2,6-dioxo-3-piperidyl)-1,3-dioxo-isoindolin-4-yl]amino]propyl]carbamate]
C (DC50 greater than or equal to 10 μM) | C#Cc1c(F)ccc2cc(O)cc(-c3ncc4c(N5CC6CCC(C5)N6)nc(OC[C@@]56CCCN5[C@H](COC(=O)NCCCc5cccc7c5n(C)c(=O)n7C5CCC(=O)NC5=O)CC6)nc4c3F)c12 (stereo partly drawn) [Compound 003, [(3S,8S)-8-[[4-(3,8-diazabicyclo[3.2.1]octan-3-yl)-7-(8-ethynyl-7-fluoro-3-hydroxy-1-naphthyl)-8-fluoro-pyrido[4,3-d]pyrimidin-2-yl]oxymethyl]-1,2,3,5,6,7-hexahydropyrrolizin-3-yl]methylN-[3-[1-(2,6-dioxo-3-piperidyl)-3-methyl-2-oxo-benzimidazol-4-yl]propyl]carbamate]
A (DC50 less than 1 μM) | C#Cc1c(F)ccc2cc(O)cc(-c3ncc4c(N5CC6CCC(C5)N6)nc(OC[C@@]56CCCN5[C@H](COC(=O)NCCCCCCCCCc5cccc7c5n(C)c(=O)n7C5CCC(=O)NC5=O)CC6)nc4c3F)c12 (some centres unmarked) [Compound 012]
A (DC50 less than 1 μM) | C#Cc1c(F)ccc2cc(O)cc(-c3ncc4c(N5CC6CCC(C5)N6)nc(OC[C@@]56CCCN5[C@H](COC(=O)NCCCCCCCCCCCc5cccc7c5n(C)c(=O)n7C5CCC(=O)NC5=O)CC6)nc4c3F)c12 (stereo partly drawn) [Compound 011, [(3S,8S)-8-[[4-(3,8-diazabicyclo[3.2.1]octan-3-yl)-7-(8-ethynyl-7-fluoro-3-hydroxy-1-naphthyl)-8-fluoro-pyrido[4,3-d]pyrimidin-2-yl]oxymethyl]-1,2,3,5,6,7-hexahydropyrrolizin-3-yl]methylN-[11-[1-(2,6-dioxo-3-piperidyl)-3-methyl-2-oxo-benzimidazol-4-yl]undecyl]carbamate]
C (DC50 greater than or equal to 10 μM) | C#Cc1c(F)ccc2cc(O)cc(-c3ncc4c(N5CC6CCC(C5)N6)nc(OC[C@@]56CCCN5[C@H](COC(=O)NCCCCNc5cccc7c5C(=O)N(C5CCC(=O)NC5=O)C7=O)CC6)nc4c3F)c12 (stereo partly drawn) [Compound 019, [(3S,8S)-8-[[4-(3,8-diazabicyclo[3.2.1]octan-3-yl)-7-(8-ethynyl-7-fluoro-3-hydroxy-1-naphthyl)-8-fluoro-pyrido[4,3-d]pyrimidin-2-yl]oxymethyl]-1,2,3,5,6,7-hexahydropyrrolizin-3-yl]methyl-N-[4-[[2-(2,6-dioxo-3-piperidyl)-1,3-dioxo-isoindolin-4-yl]amino]butyl]carbamate]
C (DC50 greater than or equal to 10 μM) | C#Cc1c(F)ccc2cc(O)cc(-c3ncc4c(N5CC6CCC(C5)N6)nc(OC[C@@]56CCCN5[C@H](COC(=O)NCCOCCOCCOCCNc5cccc7c5C(=O)N(C5CCC(=O)NC5=O)C7=O)CC6)nc4c3F)c12 (stereo partly drawn) [Compound 028, [(3S,8S)-8-[[4-(3,8-diazabicyclo[3.2.1]octan-3-yl)-7-(8-ethynyl-7-fluoro-3-hydroxy-1-naphthyl)-8-fluoro-pyrido[4,3-d]pyrimidin-2-yl]oxymethyl]-1,2,3,5,6,7-hexahydropyrrolizin-3-yl]methylN-[2-[2-[2-[2-[[2-(2,6-dioxo-3-piperidyl)-1,3-dioxo-isoindolin-4-yl]amino]ethoxy]ethoxy]ethoxy]ethyl]carbamate]

SMILES | DC50
C#Cc1c(F)ccc2cc(O)cc(-c3ncc4c(N5CC6CCC(C5)N6)nc(OC[C@@]56CCCN5[C@H](COC(=O)NCCCCCCNc5ccc7c(c5)C(=O)N(C5CCC(=O)NC5=O)C7=O)CC6)nc4c3F)c12 (stereo partly drawn) [Compound 017, [(3S,8S)-8-[[4-(3,8-diazabicyclo[3.2.1]octan-3-yl)-7-(8-ethynyl-7-fluoro-3-hydroxy-1-naphthyl)-8-fluoro-pyrido[4,3-d]pyrimidin-2-yl]oxymethyl]-1,2,3,5,6,7-hexahydropyrrolizin-3-yl]methyl N-[6-[[2-(2,6-dioxo-3-piperidyl)-1,3-dioxo-isoindolin-5-yl]amino]hexyl]carbamate] | B (DC50 greater than or equal to 1 μM and less than 10 μM)
C#Cc1c(F)ccc2cc(O)cc(-c3ncc4c(N5CC6CCC(C5)N6)nc(OC[C@@]56CCCN5[C@H](COC(=O)NCCCCCCNc5cccc7c5C(=O)N(C5CCC(=O)NC5=O)C7=O)CC6)nc4c3F)c12 (stereo partly drawn) [Compound 021, [(3S,8S)-8-[[4-(3,8-diazabicyclo[3.2.1]octan-3-yl)-7-(8-ethynyl-7-fluoro-3-hydroxy-1-naphthyl)-8-fluoro-pyrido[4,3-d]pyrimidin-2-yl]oxymethyl]-1,2,3,5,6,7-hexahydropyrrolizin-3-yl]methylN-[6-[[2-(2,6-dioxo-3-piperidyl)-1,3-dioxo-isoindolin-4-yl]amino]hexyl]carbamate] | B (DC50 greater than or equal to 1 μM and less than 10 μM)
